From patent publication US20200221740A1, “TERMINALIA FERDINANDIANA LEAF EXTRACT AND PRODUCTS CONTAINING EXTRACT OF TERMINALIA FERDINANDIANA LEAF” (RISING PHOENIX INDUSTRIES PTY LTD, priority 2017, published 2020)

Tests used:
[1] = tested on: Shewanella baltica strain OS155; assay: disc diffusion growth inhibition screening; format: cell-based; conditions: S. baltica
From the text: (§1) Antibacterial screening: Environmental Shewanella strains: Shewanella putrefaciens strain 200, Shewanella baltica strain OS155, Shewanella frigidimarina strain NCIMB 400 and Shewanella loihica strain PV-4 were used. Antibacterial screening was achieved using a modified peptone/yeast extract (PYE) agar containing: 1 g/L peptone, 1.5 g/L yeast extract, 7.5 g/L NaCl, 1 g/L ammonium persulfate, 2.4 g/L HEPES buffer (pH 7.5) and 16 g/L bacteriological agar. The S. putrefaciens and S. loihica cultures were incubated at 30° C. for 24 h. The S. baltica and S. frigidimarina cultures were incubated at 15° C. for 72 h. All stock cultures were subcultured and maintained in PYE media at 4° C. Evaluation of antibacterial activity: Antibacterial activity screening of the […] fruit and leaf extracts was assessed using a modified disc diffusion assay. […] Discs were infused with 10 μL of the […] fruit and leaf extracts, allowed to dry and placed onto the inoculated plates. The plates were left to stand at 4° C. for 2 h before incubation. Plates inoculated with S. putrefaciens or S. loihica cultures were incubated at 30° C. for 24 h. S. baltica or S. frigidimarina cultures were incubated at 15° C. for 72 h. The diameters of the inhibition zones were measured to the closest whole millimetre. Each assay was completed in at least triplicate. Mean values (±SEM) are reported in this study. Ampicillin discs (10 μg) were obtained and used as positive controls to compare antibacterial activity. Filter discs infused with 10 μL of distilled water were used as a negative control.

[2] = tested on: Shewanella loihica strain PV-4; assay: disc diffusion growth inhibition screening; format: cell-based; conditions: PV4, S. loihica, 10 μL extract per disc, ampicillin 10 μg, 30° C. 24 h
From the text: as §1

[3] = tested on: Shewanella putrefaciens strain 200; assay: disc diffusion growth inhibition screening; format: cell-based; conditions: S. putrefaciens, 10 μL extract per disc, ampicillin 10 μg, 30° C. 24 h
From the text: as §1

[4] = tested on: Shewanella frigidimarina strain NCIMB 400; assay: disc diffusion growth inhibition screening; format: cell-based; conditions: S. frigidimarina
From the text: Antibacterial screening: Environmental Shewanella strains: Shewanella putrefaciens strain 200, Shewanella baltica strain OS155, Shewanella frigidimarina strain NCIMB 400 and Shewanella loihica strain PV-4 were used. Antibacterial screening was achieved using a modified peptone/yeast extract (PYE) agar containing: 1 g/L peptone, 1.5 g/L yeast extract, 7.5 g/L NaCl, 1 g/L ammonium persulfate, 2.4 g/L HEPES buffer (pH 7.5) and 16 g/L bacteriological agar.
The S. putrefaciens and S. loihica cultures were incubated at 30° C. for 24 h. The S. baltica and S. frigidimarina cultures were incubated at 15° C. for 72 h. All stock cultures were subcultured and maintained in PYE media at 4° C.
Evaluation of antibacterial activity: Antibacterial activity screening of the T. ferdinandiana fruit and leaf extracts was assessed using a modified disc diffusion assay. Briefly, 100 μL of each individual Shewanella spp. was grown separately in 20 mL of fresh nutrient broth until an approximate count of 10^8 cells/mL was achieved. A volume of 100 μL of each bacterial suspension was spread onto nutrient agar plates and the extracts were tested for antibacterial activity using 5 mm sterilised filter paper discs. […]
Plates inoculated with S. putrefaciens or S. loihica cultures were incubated at 30° C. for 24 h. […] The diameters of the inhibition zones were measured to the closest whole millimetre. […]

[5] = tested on: Artemia franciscana nauplii; assay: Artemia franciscana nauplii lethality assay; conditions: potassium dichromate 1000 μg/mL
Protocol: Artemia franciscana nauplii toxicity screening: Toxicity was assessed using a modified Artemia franciscana nauplii lethality assay. Briefly, 400 μL of seawater containing ˜53 (mean 52.7, n=125, SD 11.8) A. franciscana nauplii were added to wells of a 48 well plate and immediately used in the bioassay. A volume of 400 μL of the reference toxin or the diluted plant extracts were transferred to the wells and incubated at 25±1° C. under artificial light (1000 Lux). For each plate, a 400 μL seawater negative control was run in triplicate. The wells were assessed at regular intervals and the number of dead counted. The nauplii were deemed dead if no movement of the appendages was observed within 10 seconds. After 24 h, all nauplii were sacrificed and counted to determine the total % mortality per well.
To further quantify the effects of toxin concentration on the initiation of mortality, the extracts were serially diluted in artificial seawater to test across a range of concentrations in the Artemia nauplii bioassay.

Row | SMILES | growth inhibitory activity (in words) [1] | zone of inhibition at 10 µg/disc [2] | zone of inhibition at 10 µg/disc [3] | growth inhibitory activity (in words) [4] | onset of nauplii death [5] | mortality ([5]; within 5 hours)
1 | CC1(C)S[C@@H]2[C@H](NC(=O)[C@H](N)c3ccccc3)C(=O)N2[C@H]1C(=O)O [ampicillin] | unaffected | 19.6 ± 1.3 mm | 8.3 ± 0.6 mm | resistant | – | –
2 | [K+].[K+].[O]=[Cr](=[O])([O-])[O][Cr](=[O])(=[O])[O-] [potassium dichromate] | – | – | – | – | ≤ 3 h | 100%
